How the values were obtained:
[1] = molecular target: T1, human recombinant Yes [a.a. 2–543 (end)] (Homo sapiens, UniProt P07947); experiment: ADP-Glo kinase assay, inhibition rates of Yes phosphorylation activity (first and second screening); assay type: biochemical; conditions: 10 μmol L−1 compound; for First screening IR (inhibition rate): mean of n = 4 wells; for Second screening IR (inhibition rate): dissolved from fresh powder, n = 4
T1 construct: human recombinant Yes [a.a; 2–543 (end)]; purchased BPS Bioscience 40488
T1 sequence (P07947 2-543): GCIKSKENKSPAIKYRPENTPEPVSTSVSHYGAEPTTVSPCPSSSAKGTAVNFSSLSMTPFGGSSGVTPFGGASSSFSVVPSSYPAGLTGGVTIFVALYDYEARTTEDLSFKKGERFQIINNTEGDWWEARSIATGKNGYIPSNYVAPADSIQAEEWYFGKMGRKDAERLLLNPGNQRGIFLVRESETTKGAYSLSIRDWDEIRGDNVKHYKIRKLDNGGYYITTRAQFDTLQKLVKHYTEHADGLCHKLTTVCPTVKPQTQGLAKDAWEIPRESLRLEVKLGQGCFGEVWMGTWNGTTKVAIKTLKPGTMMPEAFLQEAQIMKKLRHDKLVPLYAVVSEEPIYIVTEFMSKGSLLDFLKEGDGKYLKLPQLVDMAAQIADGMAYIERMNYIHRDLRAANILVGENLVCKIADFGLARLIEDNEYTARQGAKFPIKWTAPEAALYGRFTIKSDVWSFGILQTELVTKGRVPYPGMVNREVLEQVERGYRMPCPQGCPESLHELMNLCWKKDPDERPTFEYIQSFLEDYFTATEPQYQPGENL
Method in brief: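 ADP-Glo luminescence measured inhibition of human recombinant Yes (a.a. 2–543) phosphorylation activity. In the first screen, each compound ran in 4 wells and inhibition rates were averaged. The second screen retested hits as compounds dissolved from fresh powder.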

[2] = molecular target: T1, human recombinant Yes [a.a. 2–543 (end)]; experiment: ADP-Glo kinase assay, IC50 determination (dose-response curves) for Yes; assay type: biochemical; conditions: for dose-response relationship (DRR): IC50 determination; for "inhibition activity" in the whole range of concentrations: dose-response test, no DRR; for IC50: 5.5-nmol L−1 Yes, 0.013-mmol L−1 ATP, 0.2-mg mL−1 substrate (poly Glu-Tyr, 4:1)
Method: All inhibitory assays of the phosphorylation activity of Yes were performed in accordance with the Promega Technical Manual for the ADP-Glo™ Kinase Assay (Fitchburg, WI, USA. Catalog number: V9102). The human recombinant Yes [a.a. 2–543 (end)] was purchased from BPS Bioscience (catalog number: 40488). The details of the assay protocol and reagent information are given elsewhere.
The screening was conducted in three steps consisting of the first screening, the second screening, and the IC50 determination, as can be illustrated in Fig. 1b. First, we determined the inhibition rates of the 1,991 compounds. Each compound was placed in 4 wells of a 384-well plate. In total, 80 compounds were assayed on one plate and the other wells were used for positive and negative controls. The compounds were randomly placed on plates so that compounds proposed by one group were not placed on a plate together. A mean of four inhibition rates for each compound was compared to criteria for the first screening. […] Second, the inhibition rates of the screened compounds were determined on one plate using the same procedure of the first screening, where compounds were dissolved from fresh powder. […] Screened compounds were then evaluated for their IC50 values. […]
determine their IC50 values. Each dose-response curve was initially built using 8-point, 2-fold serial dilutions starting at 100 μmol L−1, with each concentration point in 4 […]
Assay was carried out under the same conditions as the primary screening, in summary, the final reagent concentrations were 5.5-nmol L−1 Ye s , 0.013-mmol L−1 ATP, and 0.2-mg mL−1 substrate (poly Glu-Tyr peptides, Glu:Tyr=4:1).
The curves were analyzed by GraphPad Prism (sigmoidal fit with variable slope). IC50 […]
standard deviations of the measurements.

With `CC(=O)Nc1ccc(/C=N/Nc2ncnc3cc(-c4ccc(F)cc4)sc23)cc1` [Compound Z50080181] as the compound, how does the “First screening IR (inhibition rate)” value [1] read?
The value was 51%.

What about the “Second screening IR (inhibition rate)” value [1] of the same compound?
Its value is 47%.

And the “dose-response relationship (DRR)” value [2]?
Its value is “did not reveal a DRR”.

And the “"inhibition activity" in the whole range of concentrations” value (“"inhibition activity" in the whole range” below) [2]?
The value was “around 50%”.

Which “First screening IR (inhibition rate)” value [1] does the source give for `Fc1ccc(-c2cc3ncnc(N/N=C/c4ccncc4)c3s2)cc1` [Compound Z50080378] here?
The value was 67%.

What about the “Second screening IR (inhibition rate)” value [1] of the same compound?
The value was 55%.

And the “dose-response relationship (DRR)” value [2]?
The value was “did not reveal a DRR”.

What about the “"inhibition activity" in the whole range” value [2] of the same compound?
The value was “around 50%”.

With `COc1ccc(Br)cc1/C=N/Nc1ncnc2nc[nH]c12` [Compound Z57745307] as the compound, how does the “First screening IR (inhibition rate)” value [1] read?
The value was 62%.

And the “Second screening IR (inhibition rate)” value [1]?
The value was 61%.

And the “dose-response relationship (DRR)” value [2]?
The value was “did not reveal a DRR”.

What about the “"inhibition activity" in the whole range” value [2] of the same compound?
Its value is “around 50%”.

For `O=C(CSc1ccc2ccccc2n1)Nc1nsc(-c2ccc(Cl)cc2)n1` [Compound Z275023406], which “First screening IR (inhibition rate)” value [1] is on record?
The value was 67%.

And the “Second screening IR (inhibition rate)” value [1]?
The value was 64%.

And the IC50 [2]?
The IC50 was 37.4 µM.

And the “dose-response relationship (DRR)” value [2]?
Its value is “good DRR”.

What does the source list for `Cc1cc(N2CCc3c(ncn3C3CC3)C2)c2cc(OC(F)F)ccc2n1` [Compound Z1252403274]?
First screening IR (inhibition rate) [1]: 72%; Second screening IR (inhibition rate) [1]: 50%; IC50 [2]: 20 µM; dose-response relationship (DRR) [2]: good DRR

Which results are given for `CCCC(C)c1cc(NC(=O)c2ccc(N3CCNC3=O)cc2)n[nH]1` (stereo not shown) [Compound Z1283491630]?
First screening IR (inhibition rate) [1]: 29%; Second screening IR (inhibition rate) [1]: 49%; dose-response relationship (DRR) [2]: did not reveal a DRR; "inhibition activity" in the whole range of concentrations [2]: around 50%

How did the “First screening IR (inhibition rate)” value [1] turn out when `Oc1cncc(/C=C/c2nc(-c3ccncc3)no2)c1` [Compound Z1739342675] was run?
Its value is 8%.

With `CC(C)Oc1cc(CN(c2ncnc3c2cnn3C)C2CC2)ccn1` [Compound Z1739489055] as the compound, how does the “First screening IR (inhibition rate)” value [1] read?
The value was 3%.

For `CSc1ccc(C(C)N2CCCC(C(=O)N3CCOCC3)C2)cc1F` (stereo not shown) [Compound Z1742902065], which “First screening IR (inhibition rate)” value [1] is on record?
Its value is 26%.

Which “First screening IR (inhibition rate)” value [1] does the source give for `CNC(=O)c1cccc(NCc2cc(C)ccc2O)n1` [Compound Z1743524859] here?
Its value is 37%.

Which “First screening IR (inhibition rate)” value [1] does the source give for `Cc1nccn1Cc1ccc(NC(=O)c2ncccc2O)cc1` [Compound Z1746485864] here?
Its value is 55%.

Which “First screening IR (inhibition rate)” value [1] does the source give for `CNc1nc(NC2CCOC2c2ccc(F)c(F)c2)ncc1Br` (stereo not shown) [Compound Z1765170433] here?
The value was 3%.

How did the “First screening IR (inhibition rate)” value [1] turn out when `CC1(NC(=O)OC(C)(C)C)CCN(C(=O)c2cc3c(cc2O)CCCC3)CC1` [Compound Z1769013356] was run?
The value was -20%.

For `Cc1cc(N2CCN(C(=O)c3cc(Br)cn3C(C)C)CC2)n[nH]1` [Compound Z1784719533], which “First screening IR (inhibition rate)” value [1] is on record?
Its value is -5%.

For `C#CC(COC)NS(=O)(=O)CCCS(C)(=O)=O` (stereo not shown) [Compound Z1787994415], which “First screening IR (inhibition rate)” value [1] is on record?
Its value is 4%.

Which “First screening IR (inhibition rate)” value [1] does the source give for `Cc1nccn1-c1cncc(NCc2cc(-c3ccccc3)on2)n1` [Compound Z1798299891] here?
The value was 19%.

For `CCNC(=O)c1ccc(NC(C)C(O)c2ccc(F)cc2)nc1` (stereo not shown) [Compound Z1798329942], which “First screening IR (inhibition rate)” value [1] is on record?
Its value is 35%.

With `CC(C)c1ccc(-n2cc(O)c(C(=O)NCC(C)N3CCCCC3=O)n2)cc1` (stereo not shown) [Compound Z1820642882] as the compound, how does the “First screening IR (inhibition rate)” value [1] read?
Its value is -3%.

`Cc1occc1S(=O)(=O)CCCS(=O)(=O)C(C)C` [Compound Z1822689954] was tested. Which “First screening IR (inhibition rate)” value [1] did it give?
The value was -9%.

Which “First screening IR (inhibition rate)” value [1] does the source give for `O=[N+]([O-])c1ccc(N2CCC(C(O)c3ncc[nH]3)CC2)nc1-c1ccccc1` (stereo not shown) [Compound Z1823608663] here?
The value was -51%.

For `CN1CCC(N(c2ccccc2)S(=O)(=O)c2cc(Cl)cc3c2OCC3)CC1` [Compound Z1833465604], which “First screening IR (inhibition rate)” value [1] is on record?
The value was 9%.

For `CN(c1cc(C#N)ccn1)S(=O)(=O)c1ccccc1S(C)(=O)=O` [Compound Z1833478806], which “First screening IR (inhibition rate)” value [1] is on record?
Its value is 7%.

Which “First screening IR (inhibition rate)” value [1] does the source give for `CNS(=O)(=O)c1ccc2c(c1)nc(-c1cc(C#N)n(C)c1)n2C` [Compound Z1837787694] here?
The value was -2%.

`COc1cccc(-c2cc(-c3ccc(Cl)cc3)c3ccccc3n2)c1` [Compound Z1844441844] was tested. Which “First screening IR (inhibition rate)” value [1] did it give?
Its value is 48%.

`Cc1ccc(-c2cc(-c3cccc(C)c3)nc3ccccc23)cc1` [Compound Z1844441892] was tested. Which “First screening IR (inhibition rate)” value [1] did it give?
Its value is 9%.

With `Cc1ccc(-c2cc(-c3cccc(Br)c3)nc3ccccc23)cc1` [Compound Z1847669462] as the compound, how does the “First screening IR (inhibition rate)” value [1] read?
The value was 0%.

Which “First screening IR (inhibition rate)” value [1] does the source give for `CC(C)c1ccc(Sc2ccc(N3CCC(C(=O)O)CC3)nn2)cc1` [Compound Z1863492097] here?
Its value is 1%.

With `C#CCN(C)S(=O)(=O)c1cc(S(C)(=O)=O)sc1Cl` [Compound Z1863649257] as the compound, how does the “First screening IR (inhibition rate)” value [1] read?
Its value is -18%.

`C#CC(C)(C)N(C)S(=O)(=O)c1ccc(S(C)(=O)=O)cc1` [Compound Z1911236831] was tested. Which “First screening IR (inhibition rate)” value [1] did it give?
The value was -10%.

With `CC(CNC(=O)c1ncncc1Br)CN1CCN(C)CC1` (stereo not shown) [Compound Z1936607769] as the compound, how does the “First screening IR (inhibition rate)” value [1] read?
The value was -11%.

Which “First screening IR (inhibition rate)” value [1] does the source give for `O=c1[nH]c2cc(Cl)ccc2c(-c2ccccc2)c1CN1CCCCC1` [Compound Z1980444406] here?
Its value is 1%.
